Source: patent publication US11192891B2, “Diazaspiro ROCK inhibitors” (BRISTOL-MYERS SQUIBB COMPANY, priority 2017, dated 2021)

Target: ROCK2 (Homo sapiens, UniProt O75116)
Experiment: ROCK kinase inhibition assay, FITC peptide substrate, LABCHIP 3000 readout
Format: biochemical
Conditions: 5 μM ATP, 1.5 μM peptide substrate
Method: Compounds were dissolved in DMSO so that the final concentration of DMSO was <2%, and the reaction was initiated with Rho kinase variants. After incubation, the reaction was terminated by the addition of EDTA and the phosphorylated and non-phosphorylated peptides separated using a LABCHIP® 3000 Reader (Caliper Life Sciences). […] Compounds were tested in dose-response format, and the inhibition of kinase activity was calculated at each concentration of compound.

Sequence of ROCK2 (O75116 whole entry, species assumed): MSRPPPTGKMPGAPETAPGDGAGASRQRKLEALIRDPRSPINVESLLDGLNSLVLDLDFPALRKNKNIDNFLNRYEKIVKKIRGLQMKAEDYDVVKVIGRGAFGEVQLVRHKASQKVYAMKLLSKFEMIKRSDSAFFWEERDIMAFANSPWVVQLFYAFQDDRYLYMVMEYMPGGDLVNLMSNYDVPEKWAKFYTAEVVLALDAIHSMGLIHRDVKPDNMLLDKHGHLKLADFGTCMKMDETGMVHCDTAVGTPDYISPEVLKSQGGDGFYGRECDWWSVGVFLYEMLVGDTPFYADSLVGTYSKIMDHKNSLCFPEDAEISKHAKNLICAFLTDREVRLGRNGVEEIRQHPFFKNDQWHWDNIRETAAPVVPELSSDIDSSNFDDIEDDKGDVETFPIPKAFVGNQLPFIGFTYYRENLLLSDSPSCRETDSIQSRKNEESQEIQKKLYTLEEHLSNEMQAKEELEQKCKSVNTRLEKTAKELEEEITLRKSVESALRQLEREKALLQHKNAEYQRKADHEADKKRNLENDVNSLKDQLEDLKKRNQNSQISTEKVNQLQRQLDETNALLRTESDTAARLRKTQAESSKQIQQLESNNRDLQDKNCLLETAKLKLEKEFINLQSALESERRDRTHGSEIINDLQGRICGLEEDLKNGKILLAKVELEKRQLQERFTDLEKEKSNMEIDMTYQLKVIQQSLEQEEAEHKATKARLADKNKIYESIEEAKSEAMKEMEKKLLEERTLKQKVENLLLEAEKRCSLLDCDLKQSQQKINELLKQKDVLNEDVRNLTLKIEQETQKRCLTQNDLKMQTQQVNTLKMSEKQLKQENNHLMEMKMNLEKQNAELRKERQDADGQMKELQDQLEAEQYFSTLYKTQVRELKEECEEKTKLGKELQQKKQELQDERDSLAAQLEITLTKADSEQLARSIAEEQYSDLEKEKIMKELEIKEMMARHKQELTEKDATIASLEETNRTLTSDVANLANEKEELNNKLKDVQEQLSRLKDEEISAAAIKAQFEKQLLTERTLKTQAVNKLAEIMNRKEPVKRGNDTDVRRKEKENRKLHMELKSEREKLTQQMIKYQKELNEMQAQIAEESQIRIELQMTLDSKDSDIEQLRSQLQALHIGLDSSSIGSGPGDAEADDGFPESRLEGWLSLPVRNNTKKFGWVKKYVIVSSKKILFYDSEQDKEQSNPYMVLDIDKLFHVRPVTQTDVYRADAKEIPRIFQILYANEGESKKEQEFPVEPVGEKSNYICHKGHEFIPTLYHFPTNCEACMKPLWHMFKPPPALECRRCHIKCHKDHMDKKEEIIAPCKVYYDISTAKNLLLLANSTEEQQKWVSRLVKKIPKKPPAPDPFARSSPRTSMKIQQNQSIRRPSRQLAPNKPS

Row | Structure (SMILES) | IC50
1 | COc1ccc(C(=O)N2CCC3(CC2)CN(c2ccc(-c4cn[nH]c4)cc2)C3=O)cc1 [Example 40, 7-(4-methoxybenzoyl)-2-[4-(1H-pyrazol-4-yl)phenyl]-2,7-diazaspiro[3.5]nonan-1-one] | 0.132 µM
2 | COc1cccc(C(=O)N2CCC3(CC2)CN(c2ccc(-c4cn[nH]c4)cc2)C3=O)c1 [Example 41, 7-(3-methoxybenzoyl)-2-[4-(1H-pyrazol-4-yl)phenyl]-2,7-diazaspiro[3.5]nonan-1-one] | 0.285 µM
3 | O=C(c1ccccc1)N1CCC2(CCN(c3ccc(-c4cn[nH]c4)cc3)C2=O)C1 (stereo not drawn) [Example 42, 7-benzoyl-2-[4-(1H-pyrazol-4-yl)phenyl]-2,7-diazaspiro[4.4]nonan-1-one] | 1.22 µM
4 | COc1ccccc1C(=O)N1CCC2(CCN(c3ccc(-c4cn[nH]c4)cc3)C2=O)C1 (stereo not drawn) [Example 43, 7-(2-methoxybenzoyl)-2-[4-(1H-pyrazol-4-yl)phenyl]-2,7-diazaspiro[4.4]nonan-1-one] | 2.56 µM
5 | COc1cccc(C(=O)N2CCC3(CCN(c4ccc(-c5cn[nH]c5)cc4)C3=O)C2)c1 (stereo not drawn) [Example 44, 7-(3-methoxybenzoyl)-2-[4-(1H-pyrazol-4-yl)phenyl]-2,7-diazaspiro[4.4]nonan-1-one] | 0.444 µM
6 | COc1ccc(C(=O)N2CCC3(CCN(c4ccc(-c5cn[nH]c5)cc4)C3=O)C2)cc1 (stereo not drawn) [Example 45, 7-(4-methoxybenzoyl)-2-[4-(1H-pyrazol-4-yl)phenyl]-2,7-diazaspiro[4.4]nonan-1-one] | 0.18 µM
7 | O=C1N(c2ccc(-c3cn[nH]c3)cc2)CCC12CCN(S(=O)(=O)c1ccccc1)C2 (stereo not drawn) [Example 46, 7-(benzenesulfonyl)-2-[4-(1H-pyrazol-4-yl)phenyl]-2,7-diazaspiro[4.4]nonan-1-one] | 0.75 µM
8 | COc1ccc(C(=O)N2CCC3(CC2)CC(=O)N(c2ccc(-c4cn[nH]c4)c(OC)c2)C3)cc1 [Example 47, 2-[3-methoxy-4-(1H-pyrazol-4-yl)phenyl]-8-(4-methoxybenzoyl)-2,8-diazaspiro[4.5]decan-3-one] | 0.306 µM
9 | CN1CCN(c2ccc(C(=O)N3CCC4(CC3)CCN(c3cccc(-c5cn[nH]c5)c3)C4=O)cc2)CC1 [Example 48, 8-[4-(4-methylpiperazin-1-yl)benzoyl]-2-[3-(1H-pyrazol-4-yl)phenyl]-2,8-diazaspiro[4.5]decan-1-one] | 1.1 µM
10 | CN1CCN(c2ccc(C(=O)N3CCC4(CC3)CCN(c3cccc(-c5ccc6cn[nH]c6c5)c3)C4=O)cc2)CC1 [Example 49, 2-[3-(1H-indazol-6-yl)phenyl]-8-[4-(4-methylpiperazin-1-yl)benzoyl]-2,8-diazaspiro[4.5]decan-1-one] | 0.0068 µM
11 | COc1ccc(C(=O)N2CCC3(CC2)CCN(c2cccc(-c4ccc5cn[nH]c5c4)c2)C3=O)cc1 [Example 50] | 1.68 µM
12 | CN1CCN(c2ccc(C(=O)N3CCC4(CC3)CCN(c3cccc(-c5ccc6[nH]ncc6c5)c3)C4=O)cc2)CC1 [Example 51, 2-[3-(1H-indazol-5-yl)phenyl]-8-[4-(4-methylpiperazin-1-yl)benzoyl]-2,8-diazaspiro[4.5]decan-1-one] | 0.014 µM
13 | COc1ccc(C(=O)N2CCC3(CC2)CCN(c2cccc(-c4ccc5[nH]ncc5c4)c2)C3=O)cc1 [Example 52, 2-[3-(1H-indazol-5-yl)phenyl]-8-(4-methoxybenzoyl)-2,8-diazaspiro[4.5]decan-1-one] | 1.87 µM
14 | COc1cc(N2CCC3(CCN(C(=O)c4ccc(-c5cc[nH]n5)cc4)CC3)C2=O)ccc1-c1cn[nH]c1 [Example 53, 2-[3-methoxy-4-(1H-pyrazol-4-yl)phenyl]-8-[4-(1H-pyrazol-3-yl)benzoyl]-2,8-diazaspiro[4.5]decan-1-one] | 0.0165 µM
15 | COc1cc(N2CCC3(CCN(C(=O)c4ccc(N5CCCC5)cn4)CC3)C2=O)ccc1-c1cn[nH]c1 [Example 54, 2-[3-methoxy-4-(1H-pyrazol-4-yl)phenyl]-8-[5-(pyrrolidin-1-yl)pyridine-2-carbonyl]-2,8-diazaspiro[4.5]decan-1-one] | 0.0021 µM
16 | COc1cc(N2CCC3(CCN(C(=O)c4ccc(S(N)(=O)=O)cc4)CC3)C2=O)ccc1-c1cn[nH]c1 [Example 55, 4-{2-[3-methoxy-4-(1H-pyrazol-4-yl)phenyl]-1-oxo-2,8-diazaspiro[4.5]decane-8-carbonyl}benzene-1-sulfonamide] | 0.096 µM
17 | COc1cc(N2CCC3(CCN(C(=O)c4ccncc4)CC3)C2=O)ccc1-c1cn[nH]c1 [Example 56, 2-[3-methoxy-4-(1H-pyrazol-4-yl)phenyl]-8-(pyridine-4-carbonyl)-2,8-diazaspiro[4.5]decan-1-one] | 0.433 µM
18 | COc1cc(N2CCC3(CCN(C(=O)c4cccc(Oc5ccccc5)c4)CC3)C2=O)ccc1-c1cn[nH]c1 [Example 57, 2-[3-methoxy-4-(1H-pyrazol-4-yl)phenyl]-8-(3-phenoxybenzoyl)-2,8-diazaspiro[4.5]decan-1-one] | 0.118 µM

Row | Structure (SMILES) | IC50
19 | COc1cc(N2CCC3(CCN(C(=O)c4cccc(C(F)(F)F)c4)CC3)C2=O)ccc1-c1cn[nH]c1 [Example 58, 2-[3-methoxy-4-(1H-pyrazol-4-yl)phenyl]-8-[3-(trifluoromethyl)benzoyl]-2,8-diazaspiro[4.5]decan-1-one] | 0.144 µM
20 | COc1cc(N2CCC3(CCN(C(=O)c4ccc(Oc5ccccc5)cc4)CC3)C2=O)ccc1-c1cn[nH]c1 [Example 60, 2-[3-methoxy-4-(1H-pyrazol-4-yl)phenyl]-8-(4-phenoxybenzoyl)-2,8-diazapsiro[4.5]decan-1-one] | 0.054 µM
21 | COc1cc(N2CCC3(CCN(C(=O)c4ccc(-c5ccccc5)cc4)CC3)C2=O)ccc1-c1cn[nH]c1 [Example 61, 8-{[1,1′-biphenyl]-4-carbonyl}-2-[3-methoxy-4-(1H-pyrazol-4-yl)phenyl]-2,8-diazaspiro[4.5]decan-1-one] | 0.018 µM
22 | COc1cc(N2CCC3(CCN(C(=O)c4cccn4C)CC3)C2=O)ccc1-c1cn[nH]c1 [Example 62, 2-[3-methoxy-4-(1H-pyrazol-4-yl)phenyl]-8-(1-methyl-1H-pyrrole-2 carbonyl)-2,8-diazaspiro[4.5]decan-1-one] | 1.43 µM
23 | COc1cc(N2CCC3(CCN(C(=O)c4ccco4)CC3)C2=O)ccc1-c1cn[nH]c1 [Example 63, 8-(furan-2-carbonyl)-2-[3-methoxy-4-(1H-pyrazol-4-yl)phenyl]-2,8-diazaspiro[4.5]decan-1-one] | 1.69 µM
24 | COc1cc(N2CCC3(CCN(C(=O)c4ccc5ccccc5c4)CC3)C2=O)ccc1-c1cn[nH]c1 [Example 64, 2-[3-methoxy-4-(1H-pyrazol-4-yl)phenyl]-8-(naphthalene-2-carbonyl)-2,8-diazaspiro[4.5]decan-1-one] | 0.104 µM
25 | COc1cc(N2CCC3(CCN(C(=O)c4ccoc4)CC3)C2=O)ccc1-c1cn[nH]c1 [Example 65, 8-(furan-3-carbonyl)-2-[3-methoxy-4-(1H-pyrazol-4-yl)phenyl]-2,8-diazaspiro[4.5]decan-1-one] | 0.752 µM
26 | COc1cc(N2CCC3(CCN(C(=O)c4ccc(C)s4)CC3)C2=O)ccc1-c1cn[nH]c1 [Example 66, 2-[3-methoxy-4-(1H-pyrazol-4-yl)phenyl]-8-(5-methylthiophene-2-carbonyl)-2,8-diazaspiro[4.5]decan-1-one] | 0.372 µM
27 | COc1cc(N2CCC3(CCN(C(=O)c4ccsc4)CC3)C2=O)ccc1-c1cn[nH]c1 [Example 67, 2-[3-methoxy-4-(1H-pyrazol-4-yl)phenyl]-8-(thiophene-3-carbonyl)-2,8-diazaspiro[4.5]decan-1-one] | 0.382 µM
28 | COc1cc(N2CCC3(CCN(C(=O)c4cc5ccccc5[nH]4)CC3)C2=O)ccc1-c1cn[nH]c1 [Example 68, 8-(1H-indole-2-carbonyl)-2-[3-methoxy-4-(1H-pyrazol-4-yl)phenyl]-2,8-diazaspiro[4.5]decan-1-one] | 0.467 µM
29 | COc1cc(N2CCC3(CCN(C(=O)c4ccc5c(c4)OCO5)CC3)C2=O)ccc1-c1cn[nH]c1 [Example 69, 8-(2H-1,3-benzodioxole-5-carbonyl)-2-[3-methoxy-4-(1H-pyrazol-4-yl)phenyl]-2,8-diazaspiro[4.5]decan-1-one] | 0.093 µM
30 | COc1cc(N2CCC3(CCN(C(=O)c4cc5ccccc5o4)CC3)C2=O)ccc1-c1cn[nH]c1 [Example 70, 8-(1-benzofuran-2-carbonyl)-2-[3-methoxy-4-(1H-pyrazol-4-yl)phenyl]-2,8-diazaspiro[4.5]decan-1-one] | 0.529 µM
31 | COc1cc(N2CCC3(CCN(C(=O)c4cnccn4)CC3)C2=O)ccc1-c1cn[nH]c1 [Example 71, 2-[3-methoxy-4-(1H-pyrazol-4-yl)phenyl]-8-(pyrazine-2-carbonyl)-2,8-diazaspiro[4.5]decan-1-one] | 0.289 µM
32 | COc1cc(N2CCC3(CCN(C(=O)c4ccc(C)nc4)CC3)C2=O)ccc1-c1cn[nH]c1 [Example 72, 2-[3-methoxy-4-(1H-pyrazol-4-yl)phenyl]-8-(6-methylpyridine-3-carbonyl)-2,8-diazaspiro[4.5]decan-1-one] | 0.219 µM
33 | COc1cc(N2CCC3(CCN(C(=O)c4cccnc4)CC3)C2=O)ccc1-c1cn[nH]c1 [Example 73, 2-[3-methoxy-4-(1H-pyrazol-4-yl)phenyl]-8-(pyridine-3-carbonyl)-2,8-diazaspiro[4.5]decan-1-one] | 0.414 µM
34 | COc1cc(N2CCC3(CCN(C(=O)c4cnc5ccccc5c4)CC3)C2=O)ccc1-c1cn[nH]c1 [Example 74, 2-[3-methoxy-4-(1H-pyrazol-4-yl)phenyl]-8-(quinoline-3-carbonyl)-2,8-diazaspiro[4.5]decan-1-one] | 0.078 µM
35 | COc1cc(N2CCC3(CCN(C(=O)c4ccc(Cl)cc4F)CC3)C2=O)ccc1-c1cn[nH]c1 [Example 75, 8-(4-chloro-2-fluorobenzoyl)-2-[3-methoxy-4-(1H-pyrazol-4-yl)phenyl]-2,8-diazaspiro[4.5]decan-1-one] | 0.05 µM
36 | COc1cc(N2CCC3(CCN(C(=O)c4cc5ccccc5s4)CC3)C2=O)ccc1-c1cn[nH]c1 [Example 76, 8-(1-benzothiphene-2-carbonyl)-2-[3-methoxy-4-(1H-pyrazol-4-yl)phenyl]-2,8-diazaspiro[4.5]decan-1-one] | 0.027 µM
